Source: US20140163026A1, “8-ETHYL-6-(ARYL)PYRIDO[2,3-D]PYRIMIDIN-7(8H)-ONES FOR THE TREATMENT OF NERVOUS SYSTEM DISORDERS AND CANCER” (Afraxis Holdings, Inc., priority 2011, published 2014)

Tests used:
Format in all cases: biochemical
PAK4 = PAK4 (Homo sapiens, UniProt O96013); assay: In vitro PAK inhibition assay (SelectScreen, Ser/Thr 20 peptide)
Method: (§1) Compounds are screened in 1% DMSO (final) in the well. For 10 point titrations, 3-fold serial dilutions are conducted.
(§2) All Peptide/Kinase Mixtures are diluted to a 2× working concentration in the appropriate Kinase Buffer
The 2×PAK4/Ser/Thr 20 mixture is prepared in 50 mM HEPES pH 7.5, 0.01% BRIJ-35, 10 mM MgCl2, 1 mM EGTA. The final 10 μL Kinase Reaction consists of 0.1-0.75 ng PAK4 and 2 μM Ser/Thr 20 in 50 mM HEPES pH 7.5, 0.01% BRIJ-35, 10 mM MgCl2, 1 mM EGTA. After the 1 hour Kinase Reaction incubation, 5 μL of a 1:256 dilution of Development Reagent A is added.
(§3) This control yields 100% cleaved peptide in the Development Reaction.
(§4) The 100% Phosphorylation Control, which consists of a synthetically phosphorylated peptide of the same sequence as the peptide substrate, is designed to allow for the calculation of percent phosphorylation.
The minimum Emission Ratio in a screen is established by the 0% Inhibition Control, which contains active kinase. This control is designed to produce a 10-50%* phosphorylated peptide in the Kinase Reaction.
(§5) A known inhibitor control standard curve, 10 point titration, is run for each individual kinase on the same plate as the kinase to ensure the kinase is inhibited within an expected IC50 range previously determined.
(§6) Bar-coded Corning, low volume NBS, black 384-well plate (Corning Cat. #3676) • 1. Add the following solutions to a well in a 384-well plate: • 2.5 μL of 4× Test Compound OR (100 nL 100× Test Compound plus 2.4 μL kinase buffer) • 5 μL of 2× Peptide/Kinase (PAK) Mixture • 2.5 μL of 4×ATP Solution • 2. Shake the plate for 30-seconds • 3. Incubate the PAK Kinase Reaction at room temperature for 60-minutes • 4. Add 5 μL of Development Reagent Solution to each well • 5. Shake the plate for 30-seconds • 6. Incubate the Development Reaction for 60-minutes • 7. Determine the fluorescence using a fluorescence plate reader • 8. Analyze the fluorescence data
SelectScreen® Kinase Profiling Service uses XLfit from IDBS. The dose response curve is curve fit to model number 205 (sigmoidal dose-response model).
The table below provides specifications and data around each kinase. The representative IC50 value with a known inhibitor for each kinase was determined at the ATP bin nearest to the ATP Km app.

PAK3 = PAK3 (Homo sapiens, UniProt O75914); assay: as above
Method: as §1, §2
The 2×PAK3/Ser/Thr 20 mixture is prepared in 50 mM HEPES pH 7.5, 0.01% BRIJ-35, 10 mM MgCl2, 1 mM EGTA.
as §3, §4
(§7) This control is designed to produce a 10-50%* phosphorylated peptide in the Kinase Reaction.
as §5
as §6, with “Add” for “Bar-coded Corning, low volume NBS, black 384-well plate (Corning Cat. #3676) • 1. Add”
(§8) SelectScreen® Kinase Profiling Service uses XLfit from IDBS.
(§9) The representative IC50 value with a known inhibitor for each kinase was determined at the ATP bin nearest to the ATP Km app.

PAK1 = PAK1 (Homo sapiens, UniProt Q13153); assay: In vitro PAK inhibition assay (SelectScreen, Ser/Thr 19 peptide)
Method: as §1, §2
The 2×PAK1/Ser/Thr 19 mixture is prepared in 50 mM HEPES pH 7.5, 0.01% BRIJ-35, 10 mM MgCl2, 1 mM EGTA.
as §3, §4, §7, §5
as §6, with “Add” for “Bar-coded Corning, low volume NBS, black 384-well plate (Corning Cat. #3676) • 1. Add”
as §8, §9

PAK2 (PAK65) = PAK2 (PAK65) (Homo sapiens, UniProt Q13177); assay: In vitro PAK inhibition assay (SelectScreen, Ser/Thr 20 peptide)
Method: as §1, §2
The 2×PAK2 (PAK65)/Ser/Thr 20 mixture is prepared in 50 mM HEPES pH 7.5, 0.01% BRIJ-35, 10 mM MgCl2, 1 mM EGTA. The final 10 μL Kinase Reaction consists of 0.29-6 ng PAK2 (PAK65) and 2 μM Ser/Thr 20 in 50 mM HEPES pH 7.5, 0.01% BRIJ-35, 10 mM MgCl2, 1 mM EGTA.
as §3, §4, §7, §5
as §6, with “Add” for “Bar-coded Corning, low volume NBS, black 384-well plate (Corning Cat. #3676) • 1. Add”
as §8, §9

Chain of PAK4 (O96013 whole entry): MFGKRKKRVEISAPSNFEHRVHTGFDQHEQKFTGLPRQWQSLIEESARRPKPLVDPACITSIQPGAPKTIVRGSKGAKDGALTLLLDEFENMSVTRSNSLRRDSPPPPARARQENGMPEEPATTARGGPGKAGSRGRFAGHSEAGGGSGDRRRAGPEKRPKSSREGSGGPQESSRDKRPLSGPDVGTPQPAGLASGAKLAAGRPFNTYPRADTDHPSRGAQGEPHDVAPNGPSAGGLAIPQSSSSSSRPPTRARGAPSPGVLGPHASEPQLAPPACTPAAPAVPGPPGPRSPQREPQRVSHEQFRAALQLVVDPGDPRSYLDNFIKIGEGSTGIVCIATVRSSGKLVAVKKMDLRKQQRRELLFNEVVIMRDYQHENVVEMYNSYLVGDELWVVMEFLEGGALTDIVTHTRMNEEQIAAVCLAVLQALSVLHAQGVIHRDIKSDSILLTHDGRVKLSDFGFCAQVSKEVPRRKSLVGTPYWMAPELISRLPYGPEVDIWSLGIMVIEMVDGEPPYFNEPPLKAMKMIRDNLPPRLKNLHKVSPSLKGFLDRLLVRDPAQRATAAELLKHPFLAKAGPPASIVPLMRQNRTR
Chain of PAK3 (O75914 whole entry): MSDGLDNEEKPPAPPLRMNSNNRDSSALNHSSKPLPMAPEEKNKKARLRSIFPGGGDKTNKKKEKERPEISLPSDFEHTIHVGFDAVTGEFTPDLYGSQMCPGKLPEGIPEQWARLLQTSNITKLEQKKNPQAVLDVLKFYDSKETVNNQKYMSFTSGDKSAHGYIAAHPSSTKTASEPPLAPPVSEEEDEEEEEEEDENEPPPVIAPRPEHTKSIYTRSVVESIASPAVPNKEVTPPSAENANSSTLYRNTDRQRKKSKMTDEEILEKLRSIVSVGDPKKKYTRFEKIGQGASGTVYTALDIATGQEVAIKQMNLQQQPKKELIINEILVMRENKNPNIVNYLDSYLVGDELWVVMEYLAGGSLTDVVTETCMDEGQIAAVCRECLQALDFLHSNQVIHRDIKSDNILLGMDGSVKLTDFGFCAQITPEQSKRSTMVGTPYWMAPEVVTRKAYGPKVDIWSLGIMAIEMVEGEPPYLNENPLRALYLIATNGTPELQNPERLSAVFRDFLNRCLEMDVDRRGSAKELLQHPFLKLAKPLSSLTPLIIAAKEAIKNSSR
Chain of PAK1 (Q13153 whole entry): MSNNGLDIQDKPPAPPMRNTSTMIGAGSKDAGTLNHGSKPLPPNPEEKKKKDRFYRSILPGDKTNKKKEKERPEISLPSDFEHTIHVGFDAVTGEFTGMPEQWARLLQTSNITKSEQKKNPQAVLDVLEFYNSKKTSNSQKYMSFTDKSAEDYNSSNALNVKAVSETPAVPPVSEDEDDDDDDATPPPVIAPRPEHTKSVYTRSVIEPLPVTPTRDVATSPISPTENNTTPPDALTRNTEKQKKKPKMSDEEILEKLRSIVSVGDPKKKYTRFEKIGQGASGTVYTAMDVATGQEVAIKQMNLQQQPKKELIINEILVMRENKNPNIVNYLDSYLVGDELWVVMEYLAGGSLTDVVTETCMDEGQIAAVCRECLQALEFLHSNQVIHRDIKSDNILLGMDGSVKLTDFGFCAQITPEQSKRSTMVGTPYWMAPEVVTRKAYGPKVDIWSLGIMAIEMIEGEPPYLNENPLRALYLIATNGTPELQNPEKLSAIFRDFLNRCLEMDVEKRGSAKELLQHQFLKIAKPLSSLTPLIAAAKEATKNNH
Chain of PAK2 (PAK65) (Q13177 whole entry): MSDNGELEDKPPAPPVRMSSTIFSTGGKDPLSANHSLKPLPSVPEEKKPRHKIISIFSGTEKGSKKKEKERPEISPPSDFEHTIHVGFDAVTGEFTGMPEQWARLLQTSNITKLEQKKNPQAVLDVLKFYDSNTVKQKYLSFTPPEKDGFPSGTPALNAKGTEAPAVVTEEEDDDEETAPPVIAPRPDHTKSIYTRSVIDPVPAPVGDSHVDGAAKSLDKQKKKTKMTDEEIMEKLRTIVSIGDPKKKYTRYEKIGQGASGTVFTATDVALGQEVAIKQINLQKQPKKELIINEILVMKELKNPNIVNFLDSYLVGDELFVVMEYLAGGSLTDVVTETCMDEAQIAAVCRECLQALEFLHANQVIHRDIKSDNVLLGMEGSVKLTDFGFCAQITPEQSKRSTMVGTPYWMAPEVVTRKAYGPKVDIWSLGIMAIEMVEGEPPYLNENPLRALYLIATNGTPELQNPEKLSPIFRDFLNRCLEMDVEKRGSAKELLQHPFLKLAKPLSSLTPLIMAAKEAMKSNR

Row | IC50 (PAK4) [µM] | IC50 (PAK3) [nM] | IC50 (PAK1) [nM] | IC50 (PAK2 (PAK65)) [nM] | Structure (SMILES)
1 | ≥ 5 | < 50 | < 50 | < 50 | CCn1c(=O)c(-c2ccc(-c3cccnc3C)cc2Cl)cc2cnc(Nc3ccc(N4CCN(C)CC4)cc3)nc21
2 | ≥ 5 | < 50 | < 50 | < 50 | CCn1c(=O)c(-c2ccc(-c3ccnc(C)c3)cc2Cl)cc2cnc(Nc3ccc(N4CCN(C)CC4)cc3)nc21
3 | ≥ 5 | 50 to 500 | < 50 | 50 to 500 | CCn1c(=O)c(-c2ccc(-c3ccnc(C(=O)NC)c3)cc2Cl)cc2cnc(Nc3ccc(C4CCN(C)CC4)cc3)nc21
4 | 0.5 to 5 | < 50 | < 50 | < 50 | CCn1c(=O)c(-c2ccc(-c3cccnc3)cc2Cl)cc2cnc(Nc3ccc(C4CCN(C)CC4)cc3)nc21
5 | 0.5 to 5 | < 50 | < 50 | < 50 | CCN1CCC(c2ccc(Nc3ncc4cc(-c5ccc(-c6cccnc6)cc5Cl)c(=O)n(CC)c4n3)cc2)CC1
6 | 0.5 to 5 | 50 to 500 | < 50 | < 50 | CCN1CCC(c2ccc(Nc3ncc4cc(-c5ccc(-c6cnc(C)s6)cc5Cl)c(=O)n(CC)c4n3)cc2)CC1
7 | ≥ 5 | > 5000 | 500 to 5000 | 50 to 500 | CCn1c(=O)c(-c2ccc(-c3ccc(C(=O)NC)nc3)cc2Cl)cc2cnc(Nc3ccc(C4CCN(C)CC4)cc3)nc21
8 | 0.5 to 5 | 50 to 500 | < 50 | < 50 | CCn1c(=O)c(-c2ccc(-c3ccc(C)nc3)cc2Cl)cc2cnc(Nc3ccc(C4CCN(C)CC4)cc3)nc21
9 | ≥ 5 | < 50 | < 50 | < 50 | CCn1c(=O)c(-c2ccc(-c3cccnc3C)cc2Cl)cc2cnc(Nc3ccc(C4CCN(C)CC4)cc3)nc21
10 | 0.5 to 5 | < 50 | > 5000 | < 50 | CCn1c(=O)c(-c2ccc(-c3ccnc(C)c3)cc2Cl)cc2cnc(Nc3ccc(C4CCN(C)CC4)cc3)nc21
11 | ≥ 5 | 50 to 500 | < 50 | < 50 | CCN1CCC(c2ccc(Nc3ncc4cc(-c5ccc(-c6ccnc(C)c6)cc5Cl)c(=O)n(CC)c4n3)cc2)CC1

More lines, now with the values behind:

Row | Structure (SMILES) | IC50 (PAK4) [µM] | IC50 (PAK3) [nM] | IC50 (PAK1) [nM] | IC50 (PAK2 (PAK65)) [nM]
12 | CCn1c(=O)c(-c2ccc(-c3cn[nH]c3)cc2)cc2cnc(Nc3ccc(N4CCN(C)CC4)cc3)nc21 | ≥ 5 | > 5000 | > 5000 | 500 to 5000
13 | CCn1c(=O)c(-c2ccc(-c3ccn[nH]3)cc2)cc2cnc(Nc3ccc(N4CCN(C)CC4)cc3)nc21 | ≥ 5 | 500 to 5000 | 500 to 5000 | 50 to 500
14 | CCn1c(=O)c(-c2nc(C)sc2C)cc2cnc(Nc3ccc(N4CCN(C)CC4)cc3)nc21 | ≥ 5 | > 5000 | 500 to 5000 | 500 to 5000
15 | CCn1c(=O)c(-c2sc(C)nc2C)cc2cnc(Nc3ccc(N4CCN(C)CC4)cc3)nc21 | ≥ 5 | > 5000 | > 5000 | > 5000
16 | CCn1c(=O)c(-c2ccc(-c3noc(C(F)(F)F)n3)cc2Cl)cc2cnc(Nc3ccc(N4CCN(C(C)C)CC4)cc3)nc21 | ≥ 5 | < 50 | < 50 | < 50
17 | CCn1c(=O)c(-c2ccc(-c3noc(C)n3)cc2Cl)cc2cnc(Nc3ccc(N4CCN(C(C)C)CC4)cc3)nc21 | 0.5 to 5 | < 50 | < 50 | < 50
18 | CCn1c(=O)c(-c2ccc(-c3noc(C)n3)cc2Cl)cc2cnc(Nc3ccc(N4CCN(C)CC4)c(F)c3)nc21 | ≥ 5 | < 50 | < 50 | < 50
19 | CCn1c(=O)c(-c2ccc(-c3scnc3C)cc2Cl)cc2cnc(Nc3ccc(N4CCNCC4)cc3)nc21 | 0.5 to 5 | < 50 | < 50 | < 50
20 | CCN1CCN(c2ccc(Nc3ncc4cc(-c5ccc(-c6scnc6C)cc5Cl)c(=O)n(CC)c4n3)cc2)CC1 | ≥ 5 | 50 to 500 | < 50 | < 50
21 | CCn1c(=O)c(-c2ccc(-c3noc(C)n3)cc2)cc2cnc(Nc3ccc(N4CCN(C)CC4)cc3)nc21 | ≥ 5 | 50 to 500 | < 50 | 50 to 500
22 | CCn1c(=O)c(-c2ccc(-c3cccnc3)cc2Cl)cc2cnc(Nc3ccc(C4CCNCC4)c(F)c3)nc21 | 0.5 to 5 | < 50 | < 50 | < 50
23 | CCn1c(=O)c(-c2ccc(-c3ccc(C)nc3)cc2Cl)cc2cnc(Nc3ccc(N4CCN(C)CC4)cc3)nc21 | 0.5 to 5 | 50 to 500 | < 50 | < 50
24 | CCn1c(=O)c(-c2ccc(-c3ccc(C(=O)NC)nc3)cc2Cl)cc2cnc(Nc3ccc(N4CCN(C)CC4)cc3)nc21 | ≥ 5 | > 5000 | > 5000 | 50 to 500
25 | CCn1c(=O)c(-c2ccc(-c3cccnc3)cc2Cl)cc2cnc(Nc3ccc(C4CCNC4)cc3)nc21 (centres unmarked) | 0.5 to 5 | < 50 | < 50 | < 50
26 | CCn1c(=O)c(-c2ccc(-c3noc(C)n3)cc2Cl)cc2cnc(Nc3ccc(C4CCNC4)cc3)nc21 (centres unmarked) | 0.5 to 5 | < 50 | < 50 | < 50
27 | CCn1c(=O)c(-c2ccc(-c3noc(C)n3)cc2Cl)cc2cnc(Nc3ccc(C4CCNC4)c(F)c3)nc21 (centres unmarked) | 0.5 to 5 | < 50 | < 50 | < 50
28 | CCn1c(=O)c(-c2ccc(-c3noc(C)n3)cc2Cl)cc2cnc(Nc3ccc(N4CCNCC4)c(F)c3)nc21 | 0.05 to 0.5 | < 50 | < 50 | < 50
29 | CCn1c(=O)c(-c2ccc(-c3ccnc(C(=O)NC)c3)cc2Cl)cc2cnc(Nc3ccc(N4CCN(C)CC4)cc3)nc21 | ≥ 5 | 50 to 500 | < 50 | < 50
30 | CCn1c(=O)c(-c2ccc(-c3cccnc3)cc2Cl)cc2cnc(Nc3ccccc3)nc21 | ≥ 5 | 500 to 5000 | 50 to 500 | 500 to 5000
31 | CCN1CCC(c2ccc(Nc3ncc4cc(-c5ccc(-c6cnc(C)s6)cc5Cl)c(=O)n(CC)c4n3)cc2F)CC1 | 0.5 to 5 | < 50 | < 50 | < 50
32 | CCn1c(=O)c(-c2ccc(-c3cnc(C)s3)cc2Cl)cc2cnc(Nc3ccc(C4CCNC4)cc3)nc21 (centres unmarked) | 0.5 to 5 | < 50 | < 50 | < 50
33 | CCn1c(=O)c(-c2ccc(-c3noc(C)n3)cc2Cl)cc2cnc(Nc3ccc(C4CCNCC4)c(F)c3)nc21 | 0.5 to 5 | < 50 | < 50 | < 50
34 | CCn1c(=O)c(-c2ccc(-c3cnc(C)s3)cc2Cl)cc2cnc(Nc3ccc(C4CCNCC4)c(F)c3)nc21 | 0.5 to 5 | < 50 | < 50 | < 50
35 | CCn1c(=O)c(-c2ccc(-c3ccnc(C(=O)NC)c3)cc2Cl)cc2cnc(Nc3ccc(C4CCNCC4)cc3)nc21 | ≥ 5 | 50 to 500 | 50 to 500 | 50 to 500
